Consider twelve molecules from PubChem BioAssay (NCI).

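96-well plates; 48 h exposure; 5 concentrations. Endpoints by linear interpolation between flanking doses. Not reached: highest tested concentration assigned. GI50 = concentration required for 50% inhibition of growth. TGI denotes the concentration required for complete inhibition of growth.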

Among the test systems are CAKI-1 renal; HCT-15 colon; K-562 leukemia; KM12 colon; LOX IMVI melanoma; NCI-H23 lung; OVCAR-5 ovarian; SF-539 CNS; SK-MEL-5 melanoma; UACC-62 melanoma.
Common to all, as to experiment: NCI-60 cell line screen, 48 h

Take `O[C@@]12Cc3c([nH]c4ccccc34)[C@@H]3Oc4cccc5c4[C@@]31CCN(CC1CC1)[C@@H]2C5`: the TGI in the test with CAKI-1 renal came to 34.2 µM; in the test with HCT-15 colon, 32.6 µM; in the test with K-562 leukemia, 55.4 µM; with KM12 colon, 54 µM; in the test with LOX IMVI melanoma, 32.9 µM; in the test with NCI-H23 lung, 55.6 µM. For the same molecule, the TGI with OVCAR-5 ovarian is 49.4 µM; with SF-539 CNS, 36.3 µM; in the test on SK-MEL-5 melanoma it was 40.7 µM; in the test with UACC-62 melanoma, 32.3 µM.

Consider `CCOC(=O)c1c(C)n(-c2ccc(Cl)cc2)c2c1cc(O)c1[nH]c3c(c12)CCCC3`, for which the TGI with CAKI-1 renal, in the test on HCT-15 colon, with K-562 leukemia, in the test on KM12 colon, with LOX IMVI melanoma and with NCI-H23 lung was greater than 100 µM each time. The TGI in the test with OVCAR-5 ovarian was greater than 100 µM; with SF-539 CNS it was greater than 100 µM; with SK-MEL-5 melanoma, 49.4 µM; in the test with UACC-62 melanoma, greater than 100 µM.

Consider `CN1C(c2ccccc2)CC(=O)C(N)C1c1ccccc1` (stereo not drawn), for which the TGI was greater than 75.2 µM in the test with CAKI-1 renal; greater than 63.1 µM in the test with HCT-15 colon; greater than 67.6 µM in the test with K-562 leukemia; 57.5 µM in the test with KM12 colon; 32.1 µM in the test on LOX IMVI melanoma; greater than 100 µM with NCI-H23 lung. Also, the TGI in the test on OVCAR-5 ovarian is greater than 70.8 µM; in the test with SF-539 CNS, greater than 96.5 µM; with SK-MEL-5 melanoma, 33.6 µM; in the test with UACC-62 melanoma, 81.2 µM.

On to `Nc1nc(O)c2ncn([C@H]3CC[C@@H](CO)O3)c2n1`, for which the TGI in the test on CAKI-1 renal, with HCT-15 colon, with K-562 leukemia, in the test on KM12 colon, in the test on LOX IMVI melanoma and in the test on NCI-H23 lung was greater than 100 µM in each case. Also, the TGI in the test on OVCAR-5 ovarian, in the test on SK-MEL-5 melanoma and with UACC-62 melanoma was greater than 100 µM each time.

As for `Cc1ccc(-c2nc(N/N=C/C=C/c3ccccc3)c3ccccc3n2)cc1`, the TGI in the test with CAKI-1 renal, in the test on HCT-15 colon, with K-562 leukemia, in the test on KM12 colon, with LOX IMVI melanoma and in the test with NCI-H23 lung was greater than 100 µM throughout. Also, the TGI was 48.1 µM in the test on OVCAR-5 ovarian, greater than 100 µM with SF-539 CNS, greater than 100 µM in the test with SK-MEL-5 melanoma and 48.1 µM with UACC-62 melanoma.

Regarding `Cc1c(-c2ccccc2)[nH]c2cc(Cl)ccc2c1=O`, the TGI was greater than 100 µM in the test on CAKI-1 renal; greater than 100 µM in the test on HCT-15 colon; greater than 100 µM with K-562 leukemia; 18.7 µM in the test on KM12 colon; greater than 100 µM with LOX IMVI melanoma; greater than 100 µM in the test with NCI-H23 lung. Further, the TGI in the test on OVCAR-5 ovarian, in the test on SF-539 CNS, in the test with SK-MEL-5 melanoma and in the test on UACC-62 melanoma was greater than 100 µM in each case.

For `CCN1CCC(O)(/C=C/c2ccccc2C)C(C(=O)/C=C/c2ccccc2C)C1` (stereo not drawn), the TGI was 3.21 µM in the test with CAKI-1 renal; 3.8 µM in the test on HCT-15 colon; greater than 100 µM in the test on K-562 leukemia; 3.38 µM in the test on LOX IMVI melanoma; 4.11 µM in the test with NCI-H23 lung; 3.99 µM in the test with OVCAR-5 ovarian. In addition, the TGI was 4.28 µM with SF-539 CNS, 2.9 µM with SK-MEL-5 melanoma and 10.7 µM in the test with UACC-62 melanoma.

Consider `c1cnc2c(c1)ccc1cccnc12`, for which the TGI was 27.3 µM in the test with CAKI-1 renal; greater than 100 µM with HCT-15 colon; greater than 52.7 µM with K-562 leukemia; greater than 100 µM in the test with KM12 colon; greater than 100 µM in the test with LOX IMVI melanoma; greater than 100 µM with NCI-H23 lung. Besides, the TGI is greater than 100 µM in the test with OVCAR-5 ovarian, greater than 100 µM with SF-539 CNS, greater than 34 µM in the test on SK-MEL-5 melanoma and greater than 100 µM with UACC-62 melanoma.

On to `CC1=C(O)C2=C(C(=O)C1=O)[C@@H](C)CC[C@@H]2[C@@H](C)C/C=C/C(C)(C)O`, for which the TGI in the test with CAKI-1 renal, with HCT-15 colon, with K-562 leukemia, with KM12 colon, in the test with LOX IMVI melanoma and with NCI-H23 lung was greater than 100 µM throughout. Further, the TGI in the test on OVCAR-5 ovarian, in the test with SF-539 CNS, in the test on SK-MEL-5 melanoma and with UACC-62 melanoma was greater than 100 µM in each case.

Regarding `Nc1[nH]c(=O)nc2c1cnn2C1CCCCO1` (stereo not drawn), the TGI with CAKI-1 renal, with HCT-15 colon, with K-562 leukemia, with KM12 colon, in the test on LOX IMVI melanoma and with NCI-H23 lung was greater than 100 µM throughout. The TGI in the test on OVCAR-5 ovarian, with SF-539 CNS and with SK-MEL-5 melanoma was greater than 100 µM each time.

As to `C=C(C)C1Cc2c(c3ccccc3n(C)c2=O)O1` (stereo not drawn), the TGI in the test with CAKI-1 renal, with HCT-15 colon, in the test on K-562 leukemia, with LOX IMVI melanoma, with NCI-H23 lung and with SF-539 CNS was greater than 100 µM in each case. Also, the TGI with SK-MEL-5 melanoma and in the test with UACC-62 melanoma was greater than 100 µM each time.

As to `c1ccc(-c2nc(N3CCNCC3)c3oc(-c4ccccc4)nc3n2)cc1`, the GI50 is 1.66 µM in the test on CAKI-1 renal; 1.8 µM in the test with HCT-15 colon; 0.428 µM in the test with K-562 leukemia; 1.8 µM with KM12 colon; 1.76 µM in the test on NCI-H23 lung; 1.69 µM with OVCAR-5 ovarian. Also, the GI50 in the test with SF-539 CNS was 1.76 µM; in the test on SK-MEL-5 melanoma it was 1.77 µM; with UACC-62 melanoma it was 1.72 µM. Further, the TGI in the test with CAKI-1 renal came to 3.18 µM; in the test with HCT-15 colon it was 3.51 µM; in the test on K-562 leukemia, 2.35 µM; in the test on KM12 colon it was 3.35 µM; with NCI-H23 lung, 3.39 µM; with OVCAR-5 ovarian it was 3.08 µM. For the same molecule, the TGI was 3.17 µM with SF-539 CNS, 3.2 µM in the test on SK-MEL-5 melanoma and 3.11 µM in the test with UACC-62 melanoma.
